Reference: ChEMBL document CHEMBL5505966, “Synthesis and pharmacological characterization of conformationally restricted 2-amino-Adipic acid analogs and carboxycyclopropyl glycines as selective metabotropic glutamate 2 receptor agonists” (Eur J Med Chem, 2024)
Each block holds one compound with its values, some of them ahead of it. The source made the active and inactive calls. The rule behind the calls is not given here.

How the values were obtained:
[1] = molecular target: Metabotropic glutamate receptor 8 (Rattus norvegicus) (UniProt P70579); assay: Agonist activity at rat mGluR8 receptor expressed in HEK293 cells at 30 uM by IP-1 HTRF assay; type: functional, cell-based
Sequence of Metabotropic glutamate receptor 8 (Rattus norvegicus) (P70579 whole entry): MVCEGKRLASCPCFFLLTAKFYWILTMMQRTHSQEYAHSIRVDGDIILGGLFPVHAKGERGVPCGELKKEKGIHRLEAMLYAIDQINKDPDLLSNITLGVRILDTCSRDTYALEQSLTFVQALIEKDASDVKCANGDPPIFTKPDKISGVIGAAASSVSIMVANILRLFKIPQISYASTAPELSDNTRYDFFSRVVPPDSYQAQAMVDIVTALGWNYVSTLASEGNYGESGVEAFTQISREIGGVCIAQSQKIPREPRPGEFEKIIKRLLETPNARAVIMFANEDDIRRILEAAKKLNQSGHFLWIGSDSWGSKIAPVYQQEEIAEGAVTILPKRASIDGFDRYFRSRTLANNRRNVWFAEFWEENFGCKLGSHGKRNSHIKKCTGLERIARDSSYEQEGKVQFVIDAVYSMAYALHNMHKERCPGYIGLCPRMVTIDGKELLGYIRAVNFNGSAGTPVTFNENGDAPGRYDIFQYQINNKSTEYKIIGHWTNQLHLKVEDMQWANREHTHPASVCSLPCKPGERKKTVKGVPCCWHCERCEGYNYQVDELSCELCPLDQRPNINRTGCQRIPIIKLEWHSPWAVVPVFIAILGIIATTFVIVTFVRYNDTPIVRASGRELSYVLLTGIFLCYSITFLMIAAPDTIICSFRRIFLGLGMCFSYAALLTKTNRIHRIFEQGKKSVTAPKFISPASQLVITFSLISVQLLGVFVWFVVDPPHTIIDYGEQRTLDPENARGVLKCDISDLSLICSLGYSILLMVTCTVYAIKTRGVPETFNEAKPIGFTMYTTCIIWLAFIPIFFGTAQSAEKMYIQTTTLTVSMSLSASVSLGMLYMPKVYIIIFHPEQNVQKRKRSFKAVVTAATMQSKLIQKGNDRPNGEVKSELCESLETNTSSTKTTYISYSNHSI

[2] = molecular target: Metabotropic glutamate receptor 1 (Rattus norvegicus, UniProt P23385); assay: Agonist activity at rat mGluR1 receptor expressed in HEK293 cells by IP-1 HTRF assay; type: functional, cell-based
[3] = molecular target: Metabotropic glutamate receptor 7 (Rattus norvegicus) (UniProt P35400); assay: Antagonist activity at rat mGluR7 receptor expressed in HEK293 cells by IP-1 HTRF assay; type: functional, cell-based
Sequence of Metabotropic glutamate receptor 7 (Rattus norvegicus) (P35400 whole entry): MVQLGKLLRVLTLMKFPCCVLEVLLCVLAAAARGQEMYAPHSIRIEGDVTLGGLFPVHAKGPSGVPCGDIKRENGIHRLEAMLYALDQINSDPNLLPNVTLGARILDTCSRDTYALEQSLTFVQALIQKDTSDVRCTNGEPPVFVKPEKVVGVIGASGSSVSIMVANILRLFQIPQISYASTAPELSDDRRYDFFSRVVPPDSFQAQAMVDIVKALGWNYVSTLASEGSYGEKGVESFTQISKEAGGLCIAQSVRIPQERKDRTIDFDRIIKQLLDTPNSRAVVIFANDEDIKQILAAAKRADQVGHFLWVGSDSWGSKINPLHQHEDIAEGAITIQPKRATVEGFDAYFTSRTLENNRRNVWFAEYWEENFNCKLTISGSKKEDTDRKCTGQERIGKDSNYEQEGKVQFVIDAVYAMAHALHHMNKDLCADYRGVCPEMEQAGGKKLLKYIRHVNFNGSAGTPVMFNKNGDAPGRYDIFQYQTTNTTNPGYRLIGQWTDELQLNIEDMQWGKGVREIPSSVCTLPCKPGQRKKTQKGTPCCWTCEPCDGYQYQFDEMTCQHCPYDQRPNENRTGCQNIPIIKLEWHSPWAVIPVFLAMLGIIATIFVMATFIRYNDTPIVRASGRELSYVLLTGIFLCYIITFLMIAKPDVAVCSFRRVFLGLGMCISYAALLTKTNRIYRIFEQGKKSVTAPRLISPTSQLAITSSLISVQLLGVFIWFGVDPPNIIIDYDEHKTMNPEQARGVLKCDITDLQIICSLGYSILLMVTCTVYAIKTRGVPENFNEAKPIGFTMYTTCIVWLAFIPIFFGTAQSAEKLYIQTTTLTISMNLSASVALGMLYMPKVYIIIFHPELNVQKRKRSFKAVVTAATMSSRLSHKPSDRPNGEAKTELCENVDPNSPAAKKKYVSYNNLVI

Rattus norvegicus [4] = species: Rattus norvegicus; assay: Selectivity ratio of EC50 for agonist activity at rat mGluR7 receptor expressed in HEK293 cells to EC50 for agonist activity at rat mGluR2 receptor expressed in HEK293 cells; type: cell-based
[5] = molecular target: Metabotropic glutamate receptor 3 (Rattus norvegicus, UniProt P31422); assay: Agonist activity at rat mGluR3 receptor expressed in HEK293 cells by IP-1 HTRF assay; type: functional, cell-based
[6] = molecular target: Metabotropic glutamate receptor 4 (Rattus norvegicus) (UniProt P31423); assay: Antagonist activity at rat mGluR4 receptor expressed in HEK293 cells by IP-1 HTRF assay; type: functional, cell-based
Rattus norvegicus [7] = species: Rattus norvegicus; assay: Selectivity ratio of EC50 for agonist activity at rat mGluR5 receptor expressed in HEK293 cells to EC50 for agonist activity at rat mGluR2 receptor expressed in HEK293 cells; type: cell-based
Rattus norvegicus [8] = species: Rattus norvegicus; assay: Selectivity ratio of EC50 for agonist activity at rat mGluR3 receptor expressed in HEK293 cells to EC50 for agonist activity at rat mGluR2 receptor expressed in HEK293 cells; type: cell-based
Rattus norvegicus [9] = species: Rattus norvegicus; assay: Selectivity ratio of EC50 for agonist activity at rat mGluR6 receptor expressed in HEK293 cells to EC50 for agonist activity at rat mGluR2 receptor expressed in HEK293 cells; type: cell-based
Rattus norvegicus [10] = species: Rattus norvegicus; assay: Selectivity ratio of EC50 for agonist activity at rat mGluR1 receptor expressed in HEK293 cells to EC50 for agonist activity at rat mGluR2 receptor expressed in HEK293 cells; type: cell-based
Rattus norvegicus [11] = species: Rattus norvegicus; assay: Selectivity ratio of EC50 for agonist activity at rat mGluR4 receptor expressed in HEK293 cells to EC50 for agonist activity at rat mGluR2 receptor expressed in HEK293 cells; type: cell-based
[12] = molecular target: Metabotropic glutamate receptor 5 (Rattus norvegicus) (UniProt P31424); assay: Antagonist activity at rat mGluR5 receptor expressed in HEK293 cells by IP-1 HTRF assay; type: functional, cell-based
[13] = molecular target: Metabotropic glutamate receptor 3 (Rattus norvegicus) (UniProt P31422); assay: Antagonist activity at rat mGluR3 receptor expressed in HEK293 cells by IP-1 HTRF assay; type: functional, cell-based
Sequence of Metabotropic glutamate receptor 3 (Rattus norvegicus) (P31422 23-879 limits assumed): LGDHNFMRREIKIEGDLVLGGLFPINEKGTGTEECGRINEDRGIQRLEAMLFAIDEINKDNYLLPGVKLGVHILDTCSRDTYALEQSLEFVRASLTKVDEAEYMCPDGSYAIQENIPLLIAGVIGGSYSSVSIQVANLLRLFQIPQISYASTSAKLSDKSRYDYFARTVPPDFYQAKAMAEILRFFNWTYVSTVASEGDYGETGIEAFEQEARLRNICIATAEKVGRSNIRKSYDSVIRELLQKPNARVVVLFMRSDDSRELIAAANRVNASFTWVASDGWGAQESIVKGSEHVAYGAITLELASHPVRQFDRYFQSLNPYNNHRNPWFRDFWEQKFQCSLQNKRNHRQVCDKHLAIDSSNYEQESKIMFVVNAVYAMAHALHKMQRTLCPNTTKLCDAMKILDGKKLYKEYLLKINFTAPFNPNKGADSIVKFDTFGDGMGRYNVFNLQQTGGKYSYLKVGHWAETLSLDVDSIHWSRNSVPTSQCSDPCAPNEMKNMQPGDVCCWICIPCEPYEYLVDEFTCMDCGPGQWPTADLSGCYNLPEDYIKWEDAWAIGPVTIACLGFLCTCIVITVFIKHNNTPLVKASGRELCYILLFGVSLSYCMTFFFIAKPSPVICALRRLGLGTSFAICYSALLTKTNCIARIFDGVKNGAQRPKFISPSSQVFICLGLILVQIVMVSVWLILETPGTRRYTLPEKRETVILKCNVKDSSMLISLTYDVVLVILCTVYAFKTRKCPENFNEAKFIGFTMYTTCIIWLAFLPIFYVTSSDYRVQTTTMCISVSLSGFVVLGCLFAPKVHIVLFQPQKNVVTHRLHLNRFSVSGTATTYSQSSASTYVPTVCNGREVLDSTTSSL

[14] = molecular target: Metabotropic glutamate receptor 5 (Rattus norvegicus, UniProt P31424); assay: Agonist activity at rat mGluR5 receptor expressed in HEK293 cells by IP-1 HTRF assay; type: functional, cell-based
Sequence of Metabotropic glutamate receptor 5 (P31424 whole entry): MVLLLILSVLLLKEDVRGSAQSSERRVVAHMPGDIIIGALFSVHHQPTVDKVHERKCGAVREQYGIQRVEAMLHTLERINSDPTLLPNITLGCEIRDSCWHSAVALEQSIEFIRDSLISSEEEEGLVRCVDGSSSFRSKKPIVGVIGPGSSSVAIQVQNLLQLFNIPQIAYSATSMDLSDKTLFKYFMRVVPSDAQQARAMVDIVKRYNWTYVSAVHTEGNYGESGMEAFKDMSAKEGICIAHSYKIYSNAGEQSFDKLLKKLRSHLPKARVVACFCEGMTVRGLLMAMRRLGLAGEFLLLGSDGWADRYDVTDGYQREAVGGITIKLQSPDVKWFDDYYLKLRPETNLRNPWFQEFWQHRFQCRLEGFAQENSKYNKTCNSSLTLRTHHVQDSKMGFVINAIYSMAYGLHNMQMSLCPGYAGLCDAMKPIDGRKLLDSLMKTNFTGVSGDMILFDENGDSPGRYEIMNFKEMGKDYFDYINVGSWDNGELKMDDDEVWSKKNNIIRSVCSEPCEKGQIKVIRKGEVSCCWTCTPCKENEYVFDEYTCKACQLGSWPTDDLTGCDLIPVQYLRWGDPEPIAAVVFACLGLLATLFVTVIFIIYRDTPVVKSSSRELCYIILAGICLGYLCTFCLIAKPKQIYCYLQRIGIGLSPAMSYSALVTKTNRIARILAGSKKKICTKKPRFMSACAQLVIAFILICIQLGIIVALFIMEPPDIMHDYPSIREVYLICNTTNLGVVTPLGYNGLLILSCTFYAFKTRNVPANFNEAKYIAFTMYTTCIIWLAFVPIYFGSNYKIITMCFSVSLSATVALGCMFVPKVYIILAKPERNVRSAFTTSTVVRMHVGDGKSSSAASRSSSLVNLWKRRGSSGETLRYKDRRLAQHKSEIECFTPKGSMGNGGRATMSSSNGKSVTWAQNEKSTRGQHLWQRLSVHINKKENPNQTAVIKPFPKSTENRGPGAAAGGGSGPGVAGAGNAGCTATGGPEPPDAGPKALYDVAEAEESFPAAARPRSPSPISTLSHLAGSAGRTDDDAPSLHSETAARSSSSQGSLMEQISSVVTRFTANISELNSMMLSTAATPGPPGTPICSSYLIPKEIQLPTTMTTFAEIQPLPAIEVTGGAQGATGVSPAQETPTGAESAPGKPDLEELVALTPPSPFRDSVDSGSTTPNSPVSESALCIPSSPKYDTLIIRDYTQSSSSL

[15] = molecular target: Metabotropic glutamate receptor 8 (Rattus norvegicus) (UniProt P70579); assay: Antagonist activity at rat mGluR8 receptor expressed in HEK293 cells by IP-1 HTRF assay; type: functional, cell-based
[16] = molecular target: Metabotropic glutamate receptor 2 (Rattus norvegicus) (UniProt P31421); assay: Antagonist activity at rat mGluR2 receptor expressed in HEK293 cells by IP-1 HTRF assay; type: functional, cell-based
[17] = molecular target: Metabotropic glutamate receptor 6 (Rattus norvegicus) (UniProt P35349); assay: Antagonist activity at rat mGluR6 receptor expressed in HEK293 cells by IP-1 HTRF assay; type: functional, cell-based
Sequence of Metabotropic glutamate receptor 6 (Rattus norvegicus) (P35349 whole entry): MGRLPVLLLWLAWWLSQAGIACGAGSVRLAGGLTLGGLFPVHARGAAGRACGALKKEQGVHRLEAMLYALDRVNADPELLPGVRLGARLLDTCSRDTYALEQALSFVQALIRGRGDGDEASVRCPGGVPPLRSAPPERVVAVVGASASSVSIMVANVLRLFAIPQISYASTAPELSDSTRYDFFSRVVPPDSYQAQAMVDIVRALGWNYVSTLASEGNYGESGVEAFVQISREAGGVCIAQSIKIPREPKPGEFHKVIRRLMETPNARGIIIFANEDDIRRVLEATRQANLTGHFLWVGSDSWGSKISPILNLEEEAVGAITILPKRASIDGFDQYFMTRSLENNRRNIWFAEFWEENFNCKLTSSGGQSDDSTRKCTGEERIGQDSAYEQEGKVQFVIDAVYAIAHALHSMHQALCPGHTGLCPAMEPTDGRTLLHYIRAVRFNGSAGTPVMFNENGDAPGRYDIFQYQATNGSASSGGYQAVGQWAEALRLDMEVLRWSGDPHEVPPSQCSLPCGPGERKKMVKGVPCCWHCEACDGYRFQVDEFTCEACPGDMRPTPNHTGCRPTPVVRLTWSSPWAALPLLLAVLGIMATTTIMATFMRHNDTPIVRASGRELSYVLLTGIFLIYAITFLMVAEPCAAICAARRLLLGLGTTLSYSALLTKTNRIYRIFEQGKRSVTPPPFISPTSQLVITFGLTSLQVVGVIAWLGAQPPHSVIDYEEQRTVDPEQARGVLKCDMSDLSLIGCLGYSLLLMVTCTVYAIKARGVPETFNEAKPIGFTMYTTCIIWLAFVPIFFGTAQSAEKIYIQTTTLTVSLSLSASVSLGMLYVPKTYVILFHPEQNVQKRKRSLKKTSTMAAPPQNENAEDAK

[18] = molecular target: Metabotropic glutamate receptor 7 (Rattus norvegicus) (UniProt P35400); assay: Agonist activity at rat mGluR7 receptor expressed in HEK293 cells at 30 uM by IP-1 HTRF assay; type: functional, cell-based
[19] = molecular target: Metabotropic glutamate receptor 6 (Rattus norvegicus, UniProt P35349); assay: Agonist activity at rat mGluR6 receptor expressed in HEK293 cells by IP-1 HTRF assay; type: functional, cell-based
Sequence of Metabotropic glutamate receptor 6 (P35349 whole entry): as above

Rattus norvegicus [20] = species: Rattus norvegicus; assay: Selectivity ratio of EC50 for agonist activity at rat mGluR8 receptor expressed in HEK293 cells to EC50 for agonist activity at rat mGluR2 receptor expressed in HEK293 cells; type: cell-based
[21] = molecular target: Metabotropic glutamate receptor 1 (Rattus norvegicus) (UniProt P23385); assay: Antagonist activity at rat mGluR1 receptor expressed in HEK293 cells by IP-1 HTRF assay; type: functional, cell-based
[22] = molecular target: Metabotropic glutamate receptor 2 (Rattus norvegicus, UniProt P31421); assay: Agonist activity at rat mGluR2 receptor expressed in HEK293 cells by IP-1 HTRF assay; type: functional, cell-based
[23] = molecular target: Metabotropic glutamate receptor 4 (Rattus norvegicus) (UniProt P31423); assay: Agonist activity at rat mGluR4 receptor expressed in HEK293 cells at 30 uM by IP-1 HTRF assay; type: functional, cell-based
[24] = molecular target: T1, Metabotropic glutamate receptor 2 (Homo sapiens, UniProt Q14416); assay: Agonist activity at mGluR2 receptor (unknown origin); type: functional
[25] = molecular target: Metabotropic glutamate receptor 7 (Rattus norvegicus, UniProt P35400); assay: Agonist activity at rat mGluR7 receptor expressed in HEK293 cells by IP-1 HTRF assay; type: functional, cell-based
Sequence of Metabotropic glutamate receptor 7 (P35400 whole entry): as the sequence (P35400 whole entry) above

[26] = molecular target: Metabotropic glutamate receptor 8 (Rattus norvegicus, UniProt P70579); assay: Agonist activity at rat mGluR8 receptor expressed in HEK293 cells by IP-1 HTRF assay; type: functional, cell-based
Sequence of Metabotropic glutamate receptor 8 (P70579 whole entry): as the sequence (P70579 whole entry) above

[27] = molecular target: Metabotropic glutamate receptor 4 (Rattus norvegicus, UniProt P31423); assay: Agonist activity at rat mGluR4 receptor expressed in HEK293 cells by IP-1 HTRF assay; type: functional, cell-based
[28] = molecular target: Metabotropic glutamate receptor 3 (Homo sapiens, UniProt Q14832); assay: Agonist activity at human recombinant mGluR3 receptor assessed as inhibition of forskolin-stimulated [3H]cAMP accumulation incubated for 20 mins by SPA kit analysis; type: functional
[29] = molecular target: Metabotropic glutamate receptor 3 (Rattus norvegicus) (UniProt P31422); assay: Agonist activity at rat mGluR3 receptor expressed in HEK293 cells at 3 uM by IP-1 HTRF assay; type: functional, cell-based; conditions: filed as agonist
[30] = molecular target: T1, Metabotropic glutamate receptor 2; assay: Agonist activity at human recombinant mGluR2 receptor assessed as inhibition of forskolin-stimulated [3H]cAMP accumulation incubated for 20 mins by SPA kit analysis; type: functional

Structure (SMILES): CC[C@@]1(C(=O)O)C[C@H]1[C@H](N)C(=O)O
- EC50 ([2]; read-out: EC50): > 30 µM
- inhibition [3]: inactive
- EC50 [5]: > 30 µM
- inhibition [6]: inactive
- EC50 [25]: > 30 µM
- inhibition [12]: inactive
- inhibition [13]: inactive
- EC50 [26]: > 30 µM
- EC50 ([14]; read-out: EC50): > 30 µM
- inhibition [15]: inactive
- inhibition [16]: inactive
- inhibition [17]: inactive
- EC50 [27]: > 30 µM
- EC50 ([19]; read-out: EC50): 26.3 µM
- inhibition [21]: inactive
- EC50 ([22]; read-out: EC50): 1.8 µM
- EC50 ([22]; read-out: pEC50 (converted)): 1.82 µM

Structure (SMILES): N[C@@H](CCP(=O)(O)O)C(=O)O
- EC50 [25]: ~30 µM
- EC50 [26]: ~30 µM
- EC50 [27]: ~30 µM
- EC50 ([19]; read-out: EC50): 2.5 µM

Structure (SMILES): N[C@@]1(C(=O)O)CC[C@@H](C(=O)O)C1
- EC50 [28]: 860 µM

More lines, main results first:

- Activity [1]: inactive
- EC50 ([2]; read-out: EC50): 5.21 µM
- EC50 ([2]; read-out: pEC50 (converted)): 5.13 µM
- inhibition [3]: inactive
- EC50 [5]: 1.22 µM
- inhibition [6]: inactive
- inhibition [12]: inactive
- inhibition [13]: inactive
- EC50 ([14]; read-out: EC50): 10.6 µM
- EC50 ([14]; read-out: pEC50 (converted)): 11.2 µM
- inhibition [15]: inactive
- inhibition [16]: inactive
- inhibition [17]: inactive
- Activity [18]: inactive
- EC50 ([19]; read-out: EC50): 2.18 µM
- EC50 ([19]; read-out: pEC50 (converted)): 2.14 µM
- inhibition [21]: inactive
- EC50 ([22]; read-out: EC50): 0.082 µM
- Activity [23]: inactive
Structure (SMILES): C[C@@]1(C(=O)O)C[C@H]1[C@H](N)C(=O)O
- Ratio EC50 (Rattus norvegicus [4]): > 25
- Ratio EC50 (Rattus norvegicus [7]): > 60
- Ratio EC50 (Rattus norvegicus [8]): 15
- Ratio EC50 (Rattus norvegicus [9]): > 25
- Ratio EC50 (Rattus norvegicus [10]): > 60
- Ratio EC50 (Rattus norvegicus [11]): > 25
- Ratio EC50 (Rattus norvegicus [20]): > 25

- EC50 [24]: 0.3 µM
Structure (SMILES): N[C@H](C(=O)O)[C@@H]1C[C@H]1C(=O)O

- EC50 [5]: 0.009 µM
- Activity [29]: 100%
- EC50 ([22]; read-out: EC50): 0.0006 µM
Structure (SMILES): N[C@@]1(C(=O)O)CO[C@H]2[C@H](C(=O)O)[C@H]21 [LY-379268]

- EC50 [30]: 0.008 µM
- EC50 [28]: 0.038 µM
Structure (SMILES): C[C@H]1[C@H](C(=O)O)[C@H]1[C@H](N)C(=O)O
